Source: patent US20260240858A1, “ORAL FORMULATIONS, METHODS OF MANUFACTURE AND USES THEREOF” (Agency For Science, Technology And Research, priority 2019, published 2026)
Where two headings read alike, the source gives them in different places.

Experiments:
[1] = Degradation in water with and without SLS; assay type: physicochemical; conditions: after 24 h at 25° C.
[2] = Solubility of compound of Formula (I) in water, buffers and surfactant solutions; assay type: physicochemical
Method: In water, compound of Formula (I) has a solubility of about 6 μg/mL. At pH 6, the solubility is about 5 μg/mL.

Moisture sorption = assay type: physicochemical; conditions: at above 90% RH
[3] = Flow properties (bulk density, tapped density, Carr's index); assay type: physicochemical; conditions: API alone
Text: Magnesium stearate was included to prevent sticking of the blend to the encapsulator contact parts (Torpac).

[4] = Particle size by dynamic light scattering; assay type: physicochemical
[5] = Permeability of compound of Formula (I)

Structure (SMILES): Cn1c(=O)c2c(ncn2CC(=O)Nc2ccc(-c3ccccc3)nn2)n(C)c1=O [compound of Formula (I)]
- degradation ([1]; In water): about 40%
- degradation ([1]; water with 2% w/v SLS): no (or minimal) degradation
- solubility ([2]; 2% w/v SLS in water, pH 8.82, aqueous with cosolvent or surfactant or cyclodextrin, thermodynamic from solid, 2% w/v SLS is water, pH after equilibration 8.82, read-out: Solubility Sample-1): 458 µg/mL
- solubility ([2]; 2% w/v SLS in water, pH 8.82, aqueous with cosolvent or surfactant or cyclodextrin, thermodynamic from solid, 2% w/v SLS is water, pH after equilibration 8.82, read-out: Solubility Sample-2): 429 µg/mL
- solubility ([2]; 2% w/v Tween 80 in pH 3.0 buffer, pH 3, aqueous with cosolvent or surfactant or cyclodextrin, thermodynamic from solid, 2% w/v Tween 80 in pH 3.0 buffer, pH after equilibration 3.16, read-out: Solubility Average (n = 2)): 25.2 µg/mL
- solubility ([2]; 2% w/v Tween 80 in pH 3.0 buffer, pH 3, aqueous with cosolvent or surfactant or cyclodextrin, thermodynamic from solid, 2% w/v Tween 80 in pH 3.0 buffer, pH after equilibration 3.16, read-out: Solubility Sample-1): 23.8 µg/mL
- solubility ([2]; 2% w/v Tween 80 in pH 3.0 buffer, pH 3, aqueous with cosolvent or surfactant or cyclodextrin, thermodynamic from solid, 2% w/v Tween 80 in pH 3.0 buffer, pH after equilibration 3.16, read-out: Solubility Sample-2): 26.7 µg/mL
- solubility ([2]; 2% w/v Tween 80 in water, pH 7.72, aqueous with cosolvent or surfactant or cyclodextrin, thermodynamic from solid, 2% w/v Tween 80 in water, pH after equilibration 7.72, read-out: Solubility Average (n = 2)): 22.8 µg/mL
- solubility ([2]; 2% w/v Tween 80 in water, pH 7.72, aqueous with cosolvent or surfactant or cyclodextrin, thermodynamic from solid, 2% w/v Tween 80 in water, pH after equilibration 7.72, read-out: Solubility Sample-1): 22.4 µg/mL
- solubility ([2]; 2% w/v Tween 80 in water, pH 7.72, aqueous with cosolvent or surfactant or cyclodextrin, thermodynamic from solid, 2% w/v Tween 80 in water, pH after equilibration 7.72, read-out: Solubility Sample-2): 23.2 µg/mL
- solubility ([2]; 5% w/v PVP K 30 in pH 1.2 buffer, pH 1.2, aqueous with cosolvent or surfactant or cyclodextrin, thermodynamic from solid, 5% w/v PVP K 30 in pH 1.2 buffer, pH after equilibration 1.25, read-out: Solubility Average (n = 2)): 35 µg/mL
- solubility ([2]; 5% w/v PVP K 30 in pH 1.2 buffer, pH 1.2, aqueous with cosolvent or surfactant or cyclodextrin, thermodynamic from solid, 5% w/v PVP K 30 in pH 1.2 buffer, pH after equilibration 1.25, read-out: Solubility Sample-1): 34.8 µg/mL
- solubility ([2]; 5% w/v PVP K 30 in pH 1.2 buffer, pH 1.2, aqueous with cosolvent or surfactant or cyclodextrin, thermodynamic from solid, 5% w/v PVP K 30 in pH 1.2 buffer, pH after equilibration 1.25, read-out: Solubility Sample-2): 35.2 µg/mL
- solubility ([2]; 5% w/v PVP K 30 in pH 3.0 buffer, pH 3, aqueous with cosolvent or surfactant or cyclodextrin, thermodynamic from solid, 5% w/v PVP K 30 in pH 3.0 buffer, pH after equilibration 3.12, read-out: Solubility Average (n = 2)): 17.9 µg/mL
- solubility ([2]; 5% w/v PVP K 30 in pH 3.0 buffer, pH 3, aqueous with cosolvent or surfactant or cyclodextrin, thermodynamic from solid, 5% w/v PVP K 30 in pH 3.0 buffer, pH after equilibration 3.12, read-out: Solubility Sample-1): 19.9 µg/mL
- solubility ([2]; 5% w/v PVP K 30 in pH 3.0 buffer, pH 3, aqueous with cosolvent or surfactant or cyclodextrin, thermodynamic from solid, 5% w/v PVP K 30 in pH 3.0 buffer, pH after equilibration 3.12, read-out: Solubility Sample-2): 15.8 µg/mL
- solubility ([2]; 5% w/v PVP K 30 in water, pH 3.96, aqueous with cosolvent or surfactant or cyclodextrin, thermodynamic from solid, 5% w/v PVP K 30 in water, pH after equilibration 3.96, read-out: Solubility Average (n = 2)): 15.8 µg/mL
- solubility ([2]; 5% w/v PVP K 30 in water, pH 3.96, aqueous with cosolvent or surfactant or cyclodextrin, thermodynamic from solid, 5% w/v PVP K 30 in water, pH after equilibration 3.96, read-out: Solubility Sample-1): 18.1 µg/mL
- solubility ([2]; 5% w/v PVP K 30 in water, pH 3.96, aqueous with cosolvent or surfactant or cyclodextrin, thermodynamic from solid, 5% w/v PVP K 30 in water, pH after equilibration 3.96, read-out: Solubility Sample-2): 13.5 µg/mL
- solubility ([2]; 20% w/v SLS in pH 1.2 buffer, pH 1.2, aqueous with cosolvent or surfactant or cyclodextrin, thermodynamic from solid, 20% w/v SLSixpB 1.2 buffer, pH after equilibration 1.33, read-out: Solubility Average (n = 2)): 2020 µg/mL
- solubility ([2]; 20% w/v SLS in pH 1.2 buffer, pH 1.2, aqueous with cosolvent or surfactant or cyclodextrin, thermodynamic from solid, 20% w/v SLSixpB 1.2 buffer, pH after equilibration 1.33, read-out: Solubility Sample-1): 1860 µg/mL
- solubility ([2]; 20% w/v SLS in pH 1.2 buffer, pH 1.2, aqueous with cosolvent or surfactant or cyclodextrin, thermodynamic from solid, 20% w/v SLSixpB 1.2 buffer, pH after equilibration 1.33, read-out: Solubility Sample-2): 2170 µg/mL
- solubility ([2]; 28% w/v SLS in pH 3.0 buffer, pH 3, aqueous with cosolvent or surfactant or cyclodextrin, thermodynamic from solid, 28% w/v SL.S in pH 3.0 baffer, pH after equilibration 2.95, read-out: Solubility Average (n = 2)): 404 µg/mL
- solubility ([2]; 28% w/v SLS in pH 3.0 buffer, pH 3, aqueous with cosolvent or surfactant or cyclodextrin, thermodynamic from solid, 28% w/v SL.S in pH 3.0 baffer, pH after equilibration 2.95, read-out: Solubility Sample-1): 394 µg/mL
- solubility ([2]; 28% w/v SLS in pH 3.0 buffer, pH 3, aqueous with cosolvent or surfactant or cyclodextrin, thermodynamic from solid, 28% w/v SL.S in pH 3.0 baffer, pH after equilibration 2.95, read-out: Solubility Sample-2): 415 µg/mL
- solubility ([2]; 29% w/v Tween 80 in pH 1.2 buffer, pH 1.2, aqueous with cosolvent or surfactant or cyclodextrin, thermodynamic from solid, 29% w/v Tween 80 in pH 1.2 buffer, pH after equilibration 1.25, read-out: Solubility Average (n = 2)): 37.2 µg/mL
- solubility ([2]; 29% w/v Tween 80 in pH 1.2 buffer, pH 1.2, aqueous with cosolvent or surfactant or cyclodextrin, thermodynamic from solid, 29% w/v Tween 80 in pH 1.2 buffer, pH after equilibration 1.25, read-out: Solubility Sample-1): 37.3 µg/mL
- solubility ([2]; 29% w/v Tween 80 in pH 1.2 buffer, pH 1.2, aqueous with cosolvent or surfactant or cyclodextrin, thermodynamic from solid, 29% w/v Tween 80 in pH 1.2 buffer, pH after equilibration 1.25, read-out: Solubility Sample-2): 37.1 µg/mL
- solubility ([2]; 50% w/v Poloxamer 188 in pH 1.2 buffer, pH 1.2, aqueous with cosolvent or surfactant or cyclodextrin, thermodynamic from solid, 50% w/v Poloxamer 188 in pH 1.2 buffer, pH after equilibration 1.25, read-out: Solubility Average (n = 2)): 35.5 µg/mL
- solubility ([2]; 50% w/v Poloxamer 188 in pH 1.2 buffer, pH 1.2, aqueous with cosolvent or surfactant or cyclodextrin, thermodynamic from solid, 50% w/v Poloxamer 188 in pH 1.2 buffer, pH after equilibration 1.25, read-out: Solubility Sample-1): 35.6 µg/mL
- solubility ([2]; 50% w/v Poloxamer 188 in pH 1.2 buffer, pH 1.2, aqueous with cosolvent or surfactant or cyclodextrin, thermodynamic from solid, 50% w/v Poloxamer 188 in pH 1.2 buffer, pH after equilibration 1.25, read-out: Solubility Sample-2): 35.4 µg/mL
- solubility ([2]; 50% w/v Poloxamer 188 in water, pH 7.23, aqueous with cosolvent or surfactant or cyclodextrin, thermodynamic from solid, 50% w/v Poloxamer 188 in water, pH after equilibration 7.23, read-out: Solubility Average (n = 2)): 9.63 µg/mL
- solubility ([2]; 50% w/v Poloxamer 188 in water, pH 7.23, aqueous with cosolvent or surfactant or cyclodextrin, thermodynamic from solid, 50% w/v Poloxamer 188 in water, pH after equilibration 7.23, read-out: Solubility Sample-1): 10.9 µg/mL
- solubility ([2]; 50% w/v Poloxamer 188 in water, pH 7.23, aqueous with cosolvent or surfactant or cyclodextrin, thermodynamic from solid, 50% w/v Poloxamer 188 in water, pH after equilibration 7.23, read-out: Solubility Sample-2): 8.39 µg/mL
- solubility ([2]; 59% w/v Poloxamer 188 in pH 3.0 buffer, pH 3, aqueous with cosolvent or surfactant or cyclodextrin, thermodynamic from solid, 59% w/v Poloxamer 188 in pH 3.0 buffer, pH after equilibration 3.30, read-out: Solubility Average (n = 2)): 18.3 µg/mL
- solubility ([2]; 59% w/v Poloxamer 188 in pH 3.0 buffer, pH 3, aqueous with cosolvent or surfactant or cyclodextrin, thermodynamic from solid, 59% w/v Poloxamer 188 in pH 3.0 buffer, pH after equilibration 3.30, read-out: Solubility Sample-1): 18.7 µg/mL
- solubility ([2]; 59% w/v Poloxamer 188 in pH 3.0 buffer, pH 3, aqueous with cosolvent or surfactant or cyclodextrin, thermodynamic from solid, 59% w/v Poloxamer 188 in pH 3.0 buffer, pH after equilibration 3.30, read-out: Solubility Sample-2): 17.9 µg/mL
- solubility ([2]; citrate buffer, pH 3, aqueous buffer, thermodynamic from solid, pH 3.0 (Citrate buffer), read-out: Solubility Average (n = 2)): 7.77 µg/mL
- solubility ([2]; citrate buffer, pH 3, aqueous buffer, thermodynamic from solid, pH 3.0 (Citrate buffer), read-out: Solubility Sample-1): 7.76 µg/mL
- solubility ([2]; citrate buffer, pH 3, aqueous buffer, thermodynamic from solid, pH 3.0 (Citrate buffer), read-out: Solubility Sample-2): 7.78 µg/mL
- solubility ([2]; hydrochloric acid buffer, pH 1.2, simulated gastric fluid, thermodynamic from solid, pH 1.2 (Hydrochloric acid buffer), read-out: Solubility Average (n = 2)): 20.8 µg/mL
- solubility ([2]; hydrochloric acid buffer, pH 1.2, simulated gastric fluid, thermodynamic from solid, pH 1.2 (Hydrochloric acid buffer), read-out: Solubility Sample-1): 20.8 µg/mL
- solubility ([2]; hydrochloric acid buffer, pH 1.2, simulated gastric fluid, thermodynamic from solid, pH 1.2 (Hydrochloric acid buffer), read-out: Solubility Sample-2): 20.9 µg/mL
- solubility ([2]; pH 2, simulated gastric fluid, At pH 2, read-out: solubility): ~8.4 µg/mL
- solubility ([2]; pH 4, aqueous buffer, At pH 4, read-out: solubility): ~6.4 µg/mL
- solubility ([2]; pH 6, aqueous buffer, At pH 6, read-out: solubility): ~5 µg/mL
- solubility ([2]; water, In water, read-out: solubility): ~6 µg/mL
- solubility ([2]; water, in water, read-out: solubility): < 6 µg/mL
- solubility ([2]; water, pH 7.95, water, thermodynamic from solid, Water, pH after equilibration 7.95, read-out: Solubility Average (n = 2)): 5.99 µg/mL
- solubility ([2]; water, pH 7.95, water, thermodynamic from solid, Water, pH after equilibration 7.95, read-out: Solubility Sample-1): 6 µg/mL
- solubility ([2]; water, pH 7.95, water, thermodynamic from solid, Water, pH after equilibration 7.95, read-out: Solubility Sample-2): 5.97 µg/mL
- water uptake (Moisture sorption): about 1%
- flow properties of the API [3]: poor flow properties
- d10 [4]: 2-5 μm
- d50 [4]: 10-30 μm
- d90 [4]: 35-55 μm
- permeability [5]: low
